Test results as given in patent publication US20250231185A1, “Coronavirus T Cell Epitopes, Megapools and Uses Thereof” (La Jolla Institute for Immunology, priority 2021, published 2025).
Entries after “also recorded” stand apart in the source; their conditions may differ. Where two headings read alike, the source gives them in different places.

Experiments:
CD4+ T cells [1] = test: Meta-analysis of published SARS-CoV-2 CD4 T cell epitope data curated in the IEDB (25 studies); type: cell-based, human
CD4+ T cells [2] = conditions: cited from earlier work; for Allele(s): HLA class II allele(s) identified as MHC restriction elements of the CD4 epitope; for Dominant: SARS-CoV-2-derived CD4 epitopes, Yes = recognized by 3 or more donors/different studies; for Restriction: T cell subset (CD4 or CD8) recognizing the SARS-CoV-2 epitope
[3] = CD4R (D) Megapool, non-spike antigens, dominant = recognized in 3 or more donors/studies
[4] = CD4RE megapool peptides (non-spike SARS-CoV-2 CD4 epitopes), dominant = recognized by 3 or more donors/different studies

2287 (FYVYSRVKNLNSSRV) [compound 2287]
Dominant (CD4+ T cells [1]; [3]): Yes (more dominant epitopes are defined by being recognized by 3 or more donors/different studies)

2314 (RWYFYYLGTGPEAGL) [compound 2314]
Dominant (CD4+ T cells [1]; [3]): Yes (more dominant epitopes are defined by being recognized by 3 or more donors/different studies)

2644 (NKDGIIWVATEGALN) [compound 2644]
Dominant (CD4+ T cells [1]; [4]): Yes (more dominant epitopes are defined by being recognized by 3 or more donors/different studies)

2293 (TNILLNVPLHGTILT) [compound 2293]
Dominant (CD4+ T cells [1]; [3]): Yes (more dominant epitopes are defined by being recognized by 3 or more donors/different studies)

2635 (LGASQRVAGDSGFAA) [compound 2635]
Dominant (CD4+ T cells [1]; [4]): Yes (more dominant epitopes are defined by being recognized by 3 or more donors/different studies)

2657 (ASAFFGMSRIGMEVT) [compound 2657]
Dominant (CD4+ T cells [1]; [4]): Yes (more dominant epitopes are defined by being recognized by 3 or more donors/different studies)

2629 (IKDLPKEITVATSRT) [compound 2629]
Dominant (CD4+ T cells [1]; [4]): Yes (more dominant epitopes are defined by being recognized by 3 or more donors/different studies)

2295 (GAVILRGHLRIAGHHLGR) [compound 2295]
Dominant (CD4+ T cells [1]; [3]): Yes (more dominant epitopes are defined by being recognized by 3 or more donors/different studies)

2641 (YYRRATRRIRGGDGK) [compound 2641]
Dominant (CD4+ T cells [1]; [4]): Yes (more dominant epitopes are defined by being recognized by 3 or more donors/different studies)

2631 (TSRTLSYYKLGASQRVA) [compound 2631]
Dominant (CD4+ T cells [1]; [4]): Yes (more dominant epitopes are defined by being recognized by 3 or more donors/different studies)

2627 (IAGHHLGRCDIKDLP) [compound 2627]
Dominant (CD4+ T cells [1]; [4]): Yes (more dominant epitopes are defined by being recognized by 3 or more donors/different studies)

2302 (TSRTLSYYKLGASQRVA) [compound 2302]
Dominant (CD4+ T cells [1]; [3]): Yes (more dominant epitopes are defined by being recognized by 3 or more donors/different studies)

2660 (GTWLTYTGAIKLDDK) [compound 2660]
Dominant (CD4+ T cells [1]; [4]): Yes (more dominant epitopes are defined by being recognized by 3 or more donors/different studies)

20 (MWLSYFIASFRLFAR) [compound 20]
Allele(s) (CD4+ T cells [2]): DQB1*02:01, DQB1*05:01,; also recorded: DQB1*05:02, DQB1*05:03,; also recorded: DRB1*03:01, DRB1*14:01,; also recorded: DRB1*14:06, DRB1*16:01,; also recorded: DRB1*16:02
Dominant (CD4+ T cells [2]): Yes (more dominant epitopes are defined by being recognized by 3 or more donors/different studies)
Restriction (CD4+ T cells [2]): CD4

8 (FLFLTWICLLQFAYA) [compound 8]
Allele(s) (CD4+ T cells [2]): DQB1*05:01, DQB1*05:03,; also recorded: DRB1*01:02
Restriction (CD4+ T cells [2]): CD4

7 (NLVIGFLFLTWICLL) [compound 7]
Allele(s) (CD4+ T cells [2]): DQB1*05:01, DRB1*01:02
Restriction (CD4+ T cells [2]): CD4

65 (PRWYFYYLGTGPEAG) [compound 65]
Allele(s) (CD4+ T cells [2]): DQB1*02:01, DQB1*05:03
Restriction (CD4+ T cells [2]): CD4

17 (ITGGIAIAMACLVGL) [compound 17]
Allele(s) (CD4+ T cells [2]): DQB1*03:01
Restriction (CD4+ T cells [2]): CD4

99 (PNFKDQVILLNKHIDAYK) [compound 99]
Restriction (CD4+ T cells [2]): CD4

257 (VKHVYQLRARSVSPK) [compound 257]
Allele(s) (HLA restriction) (CD4+ T cells [2]; CD4-restricted epitopes, HLA class II alleles identified as MHC restriction elements): DRB1*01:03, DRB1*07:01

59 (IGYYRRATRRIRGGD) [compound 59]
Dominant (CD4+ T cells [2]): Yes (more dominant epitopes are defined by being recognized by 3 or more donors/different studies)
Restriction (CD4+ T cells [2]): CD4

84 (FGDQELIRQGTDYKH) [compound 84]
Restriction (CD4+ T cells [2]): CD4

51 (NAPRITFGGPSDSTG) [compound 51]
Allele(s) (CD4+ T cells [2]): DQB1*03:01
Restriction (CD4+ T cells [2]): CD4

87 (YKHWPQIAQFAPSAS) [compound 87]
Dominant (CD4+ T cells [2]): Yes (more dominant epitopes are defined by being recognized by 3 or more donors/different studies)
Restriction (CD4+ T cells [2]): CD4

67 (LPYGANKDGIIWVAT) [compound 67]
Restriction (CD4+ T cells [2]): CD4

56 (FPRGQGVPINTNSSP) [compound 56]
Restriction (CD4+ T cells [2]): CD4

28 (RPLLESELVIGAVIL) [compound 28]
Allele(s) (CD4+ T cells [2]): DQB1*02:02
Restriction (CD4+ T cells [2]): CD4
